Assay results: patent US12570696B2, “Tumor-specific polypeptide sequence and use thereof” (SHENZHEN GINO BIOTECHNOLOGY CO., LTD., priority 2019, dated 2026)
Values joined by “and” are separate entries in the source; they are usually repeats but may differ in a detail not shown here. Identical values can stand only once.

Key:
[1] = test system: T2 cells; assay: LDH release assay of polypeptide-specific killing activity of CD8+ T cells; type: cell-based; conditions: triplicate wells
Protocol: (§1) The peripheral blood mononuclear cells (PBMCs) were collected from the volunteers who were positive for the corresponding subtype of the polypeptide. For 2×10^7 PBMCs, mononuclear cells were separated by using the adherent method (adhered for 3 h), and CD8^+ T cells were isolated by using CD8 magnetic beads. The adherent mononuclear cells were induced to immature DC cells by using GM-CSF (1000 U/ml) and IL-4 (1000 U/ml). Then, the adherent cells were induced into polypeptide-specific mature DC cells by IFN-gamma (100 U/ml), LPS (10 ng/ml), and the respective polypeptides. The obtained polypeptide-specific mature DC cells were co-cultured with volunteers' CD8^+ T cells, and IL-21 was added. After 3 days, IL-2 and IL-7 were supplemented. Thereafter, IL-2 and IL-7 were supplemented on day 5 and day 7, and on day 10, the co-cultured cells were counted, and the subsequent ELISPOTs and LDH were detected.
LDH is an enzyme present in the cytoplasm. LDH will be released into the culture medium when the cell membrane is damaged. Since the released LDH is stable, the measured amount of LDH in the medium can be used as an indicator to measure the number of dead and damaged cells.
The cells cultured in Example 4 were co-cultured with the T2 cells loaded with the testing polypeptide or the irrelevant polypeptide or no polypeptide. In the assay, maximum release wells, volume correction wells, medium control wells, spontaneous release wells, different effect-target ratios (the ratio of the number of T cells to the number of T2 cells) were set, triplicated wells for each group. After 4 hours, 50 μl of the co-cultured cell supernatant was taken and added to 50 μl of LDH substrate mixture, allowing the cell supernatant to catalyze the LDH substrate reaction, finally reading at the wavelength of 490 nm and the reference wavelength of 680 nm. Based on the control wells, the killing activity of […] killing T2 cells was calculated. The greater the value shown in Table 4, the stronger the killing effect.

[2] = test system: CD8+ T cells; assay: ELISPOT verification of activation of CD8+ T cell immune response (IFN-gamma secretion); type: cell-based, human
Protocol: as §1
The ELISPOT method is an enzyme-linked immunospot assay, which can detect the cytokines secreted by a single cell. In the assay, the culture plate was coated with specific monoclonal antibodies, and then the cells to be detected and antigenic stimulant were added for culture. Under the stimulation of the stimulant, the corresponding cytokines were secreted by the T cells, and the secreted cytokines were captured by the antibodies coated on the culture plate. After washing away the cells, the captured cytokines were bonded to […] secondary antibodies to form spots. […]
With reference to the specification in the ELISPOT kit, the cells cultured in Example 4, T2 cells loaded with testing polypeptide ([…], SEQ ID NO: 2), and T2 cells loaded with irrelevant polypeptide (referring to a polypeptide not stimulating T cells to secrete IFN-gamma interferon and having a specific sequence of […], the irrelevant polypeptide used in the following examples also refers to this sequence) were added respectively to the ELISPOT plate for cultivation, and ELISPOTs were detected after 20 hours (see the specification of the ELISPOT kit). […]

[3] = test system: HCC827 subcutaneous tumor model; assay: DC polypeptide vaccine in mouse subcutaneous transplanted tumor model; type: in vivo, NOD/SCID mice; conditions: polypeptide-loaded DC cells, intradermal, 2 injections; compared with wild-type and blank polypeptide-loaded DC groups; FIG. 5
Excerpt: (§2) This model was used to verify the tumor control effect of the polypeptide pharmaceutical combination, the antigen-presenting cell, and the vaccine proposed by the present disclosure. • 1. The encoding gene of each polypeptide was introduced by lentivirus transfection, and the recombinant lentivirus expressing the above-mentioned mutant polypeptide or a variant thereof was constructed and packaged. • 2. Construction of human-derived lung cancer cell line expressing the polypeptides
The human lung cancer cell line HCC827 was purchased from ATCC (No: CRL-2868), and its HLA subtype was HLA-A*1101 positive. Cells were cultured in DMEM medium containing 10% fetal bovine serum, 100 U/mL penicillin and streptomycin, in an incubator at 37° C., 5% CO2. The packaged lentivirus was transfected into the HCC827 cell line, and antibiotic puromycin was used to continuously screen the surviving HCC827 cell line, and finally the HCC827 cell line expressing the polypeptides was established. • 3. NOD SCID mouse human immune reconstitution […]
(§3) The established human lung cancer cell line was cultured in DMEM medium containing 10% fetal bovine serum, 100 U/mL penicillin and streptomycin, in an incubator at 37° C., 5% CO2. […] The subcutaneous tumor model NOD/SCID mice with immune reconstitution for 4 weeks were treated with DC vaccine, and the tumor volumes were recorded every 3 to 4 days. […]

[4] = test system: HCC827 subcutaneous tumor model; assay: Polypeptide-specific DC-CTL vaccine in mouse subcutaneous transplanted tumor model; type: in vivo, NOD/SCID mice; conditions: polypeptide-activated CTLs reinfused through the tail vein; compared with blank polypeptide and wild-type polypeptide groups; FIG. 6
Excerpt: as §2
(§4) The human lung cancer cell line HCC827 was purchased from ATCC (No: CRL-2868), and its HLA subtype was HLA-A*1101 positive. Cells were cultured in DMEM medium containing 10% fetal bovine serum, 100 U/mL penicillin and streptomycin, in an incubator at 37° C., 5% CO2. […]
The established human lung cancer cell line was cultured in DMEM medium containing 10% fetal bovine serum, 100 U/mL penicillin and streptomycin, in an incubator at 37° C., 5% CO2. […] The subcutaneous tumor model NOD/SCID mice with immune reconstitution for 4 weeks were treated with DC vaccine, and the tumor volumes were recorded every 3 to 4 days.
The PBLs collected in Example 9 were sorted by magnetic beads to obtain CD8^+ T cells. […] The culture medium was incubated with 500 IU/ml IL-2 and 50 ng/ml IL-7, in an incubator at 37° C. with 5% CO2, and the cells were counted after 1 week of culture. […]

[5] = target: T1, MHC I molecules on the surfaces of T2 cells (HLA-A*11:01) (Homo sapiens, UniProt P04439, A114D/D185E/E176A/F33Y/L180Q/S129P/T187R); assay: Verification of affinity of polypeptide with T2 cells (flow cytometry, fluorescence index); type: cell-based
T1 construct: endogenous in cells; host or cells: T2 cells
Excerpt: T2 cells are a necessary antigen polypeptide transporter-deficient cell line in the endogenous antigen presentation pathway, and can be used to study the strength of the mutual recognition with MHC molecules in the antigen presentation process.
In order to verify the affinity of exogenous polypeptides with T2 cells, a polypeptide that had been confirmed to have strong affinity with T2 cells was used as positive control, and T2 cells without adding polypeptides were used as background control. […] Based on this, the affinity of the polypeptide with T2 cells is determined. The higher the FI value, the stronger the affinity of the polypeptide with T2 cells, which is conducive to the subsequent recognition of specific CD8^+ T cells.
The synthesized polypeptides were added to 2*10^5 T2 cells, and human β2 micro-globulin (with a final concentration of 3 μg/ml) was added and cultivated in 24-well plate. The plate was cultured in an incubator (37° C., 5% CO2) overnight. […] (SEQ ID NO: 9), which is a viral peptide and is also a known polypeptide with strong affinity with T2 cells, was used as a positive control, duplicate wells for each experiment, and the average value was calculated.
[…] for 5 minutes to collect the cells. […] The mean fluorescence intensity was then detected and analyzed by a flow cytometer (BD FACSJazz™) and its software, see FIG. 2.

[6] = test system: HCC827 subcutaneous tumor model; assay: Polypeptide vaccine in mouse subcutaneous transplanted tumor model; type: in vivo, NOD/SCID mice; conditions: polypeptide + Freund's adjuvant, 4 immunizations, compared with wild-type polypeptide group and adjuvant group, FIG. 4
Excerpt: as §2, §4, §3
The first immunization dosage of the polypeptide of each group was […] per mouse. […] After the injection, the vital signs of the mice were observed, and the vertical and horizontal sizes of the tumor were measured with a vernier caliper every 3 to 4 days. […]

In the case of RHGGWTTK (Mutant polypeptide), the “Killing activity, T + T2 (loaded with no polypeptide)” value ([1]; E:T = 1:1, 4 hours) is reported as 0.322 and 0.279 and 0.298, the “Killing activity, T + T2 + irrelevant polypeptide” value ([1]; E:T = 1:1, 4 hours) is reported as 0.278 and 0.293 and 0.308 and the “Killing activity, T + T2 + testing polypeptide” value ([1]; E:T = 1:1, 4 hours) is reported as 0.324 and 0.351. For the same sequence, the “Killing activity, T + T2 (loaded with no polypeptide)” value ([1]; E:T = 10:1, 4 hours) was 0.413 and 0.352 and 0.364, the “Killing activity, T + T2 + irrelevant polypeptide” value ([1]; E:T = 10:1, 4 hours) was 0.436 and 0.371 and 0.407 and the “Killing activity, T + T2 + testing polypeptide” value ([1]; E:T = 10:1, 4 hours) was 0.406 and 0.397 and 0.414. For the same sequence, the “Number of spots produced by using irrelevant polypeptide as stimulant” value ([2]; IFN-gamma ELISPOT, T2 cells loaded with irrelevant polypeptide LSYRNKPSI, 20 hours) was 11, the “Number of spots produced by using testing polypeptide as stimulant” value ([2]; IFN-gamma ELISPOT, T2 cells loaded with testing polypeptide, 20 hours) was 104 and the “Multiple (testing/irrelevant)” value ([2]; ratio of spot numbers, >=2 regarded as having immunogenicity) was 9. The “Mouse tumor growth (tumor volume), polypeptide-loaded DC vaccine” value [3] was “can significantly slow down the mouse tumor growth”, the “Mouse tumor growth (tumor volume), DC-CTL vaccine” value [4] was “can significantly slow down the mouse tumor growth” and the “Conclusion (T2 cell affinity)” value ([5]; compared with the positive control) was “High affinity”. The FI ([5]; fluorescence index, T2 cells, overnight, FITC anti-HLA-A*11:01 antibody, flow cytometry) was 2.12 and the “Mouse tumor growth (tumor volume), polypeptide vaccine” value [6] was “can significantly slow down the mouse tumor growth”.
